# From US20050137121A1, “Inhibition of invasive remodelling” (priority 1996, published 2005)
# Where “and” joins values, the source holds several entries; their conditions need not be identical. Equal entries are not always repeated. Where two headings read alike, the source gives them in different places. Marks after values point to notes of the source that are not given here.
# Key:
# [1] = tested on: mouse uPA; test: Mouse specific uPA ELISA of xenograft tumour homogenates; type: in vivo; conditions: versus tumours from mock-treated animals, 125 mg/kg BB-94 daily
# Description: Tumours from untreated control mice and from mice receiving BB94 were homogenized and assayed for mouse uPA content using a mouse specific uPA ELISA.
# [2] = tested on: plg^+/+ mice; test: Wound healing, 20 mm full thickness skin incision; type: in vivo, mouse; conditions: for time after which all wounds were healed: aprotinin 13,000 KIU and/or tranexamic acid 10 mg per day in three i.p. injections, untreated 17 days
# Description: (§1) Four groups of mice were set up, consisting of 12 plg^−/− mice (group 1), another 12 plg^−/− mice (group 2), 12 plg^+/+ mice (group 3) and another 12 plg^+/+ mice (group 4). All mice were then wounded with a standardised 20 mm long, full thickness skin incision on the back.
# (§2) Each day after wounding the length of the open wounds was carefully measured and recorded. The time taken for each skin wound to completely close was also noted.
# (§3) The time taken for each skin wound to completely close was also noted.
# as §3, §3
# [3] = tested on: plg^−/− mice; test: Wound healing, 20 mm full thickness skin incision; type: in vivo, mouse; conditions: Galardin 2.5 mg i.p. once daily
# Description: as §1, with “The methods used followed those described by Rømer et al, 1996. Four” for “Four”
# as §2
# [4] = tested on: Plg-deficient mice; test: Keratinocyte migration distance in skin wounds (morphometry); type: in vivo, mouse; conditions: 100 mg/kg daily for 7 days after skin wounding
# Procedure: (§4) Keratinocyte migration. […] 18-20 sections of wound tissue from each group of mice were then analyzed microscopically, and the keratinocyte migration distance along the base of the epidermal outgrowth from the wound edge to the tip of the wedge (see Rømer et al., FIG. 2) was measured blindly by computer-assisted morphometry.
# [5] = tested on: wild-type mice; test: as above; type: in vivo, mouse; conditions: 100 mg/kg daily for 7 days after skin wounding
# Procedure: as §4
# [6] = tested on: gelatinase B, collagenase-3, stromelysin-1, gelatinase A mRNA; test: MMP mRNA expression in wound tissue by in situ hybridization; type: in vivo, mouse; conditions: wild-type and Plg-deficient mice, 100 mg/kg daily, versus mock treated
# Procedure: In parallel experiments, the mice were sacrificed and tissue sections prepared from the wound site. The tissue sections were analyzed for expression of various metalloproteases by in situ hybridisation and for matrix content by staining.
# In situ hybridization. […] The mouse macrophage elastase expression system was investigated with a single probe, while the expression of all other metalloproteases were investigated with two different non-overlapping probes, which in all cases gave identical results.
# [7] = tested on: plg^−/− mice
# Description: In the evening, female plg^−/− mice (8-10 weeks old) were placed in cages together with male plg^−/− mice of proven potency.
# [8] = tested on: plg^+/+ mice; test: Post-lactational mammary gland involution (gland weight); type: in vivo, mouse
# Description: (§5) After mice had given birth, the litter was taken away from the mother and adjusted to eight pups, adding pups from other mothers if necessary in order to provide a constant feeding load on each mother. Lactation and feeding with the eight pups were allowed to proceed for 7-8 days, at which time the litter was removed (day 1).
# [9] = tested on: plg^−/− mice; test: as above; type: in vivo, mouse
# Description: as §5
# [10] = tested on: plg^+/+ mice; test: Post-partum uterine involution (uterus weight); type: in vivo, mouse
# Description: (§6) Treatment was continued to 4 days post-partum and on the fifth day post-partum the mice were sacrificed and the uteri removed, dissected free of adhering fatty tissue, and blotted dry before weighing.
# [11] = tested on: plg^−/− mice; test: Post-partum uterine involution (uterus weight); type: in vivo, mouse
# Description: as §6
# [12] = tested on: Lewis lung carcinoma
# Procedure: Four groups of 17 mice were injected subcutaneously with Lewis lung carcinoma tissue mince (approx. 1.0×10^6 cells). The first group (CON) were treated only with buffered vehicle. The second group (TA/AP) was treated i.p. three times each day with a mixture of tranexamic acid (TA) and aprotinin (AP), so that the total dosage was 10 mg TA and 13,000 KIU AP per day per mouse. […] The tumour growth in the mice was monitored every 2-3 days by careful measurement with callipers of the longest and shortest axes of the palpable tumours, and the calculated volume was plotted as a function of time. The growth rate of the tumours was followed until death and the survival of mice in the four groups was analyzed by a Kaplan-Meier plot. Histological sections from the primary murine Lewis Lung carcinoma were analyzed by in situ hybridization for the expression of stromelysin-1 and gelatinase-B.
# [13] = tested on: plg^+/+ mice; conditions: 2.5 mg i.p. daily, 5 mice
# [14] = tested on: plg^+/+ mice; conditions: Galardin 2.5 mg, aprotinin 13,000 KIU and tranexamic acid 10 mg per day i.p.
# Description: In the evening, wild-type (plg^+/+) female mice were placed together with plg^+/+ male mice of proven potency. Bach morning the females were closely examined for the characteristic vaginal “plugs” formed after mating, and the mated females were removed and allocated to four groups.
# [15] = molecular target: angiotensin converting enzyme (ACE) (Homo sapiens, UniProt P12821); conditions: very weak inhibition; a million-fold higher than for the metalloproteases; cited from earlier work
# [16] = molecular target: plasmin (Homo sapiens, UniProt P00747); conditions: very weak inhibition; a million-fold higher than for the metalloproteases; cited from earlier work
# [17] = molecular target: stromelysin-1 (MMP-3) (Homo sapiens, UniProt P08254); conditions: cited from earlier work
# [18] = Biological half-life of aprotinin in blood plasma; type: in vivo, mouse; conditions: single i.p. injection of 2.1 mg
# Procedure: Fifteen mice (weighing approx. 25 g each) were injected i.p. with 0.75 ml of aprotinin solution (20,000 KIU/ml; approx. 2.1 mg) and at time intervals of 0.5, 1.5, 3.0, 6.0 and 24 h thereafter three mice were sacrificed and blood collected by cardiac puncture into citrate anti-coagulant tubes. Each plasma sample was ultrafiltrated through a 20,000 MW cut-off membrane, and the aprotinin level in the ultrafiltrate was determined by inhibition of the calorimetric activity of a standard trypsin solution.
# [19] = 2.5 mg/mouse i.p. daily from weaning day 2, weighed day 5, single animals
# [20] = 2.5 mg/mouse i.p. daily, weaning day 5
# Chain of stromelysin-1 (MMP-3) (P08254 100-477, species assumed): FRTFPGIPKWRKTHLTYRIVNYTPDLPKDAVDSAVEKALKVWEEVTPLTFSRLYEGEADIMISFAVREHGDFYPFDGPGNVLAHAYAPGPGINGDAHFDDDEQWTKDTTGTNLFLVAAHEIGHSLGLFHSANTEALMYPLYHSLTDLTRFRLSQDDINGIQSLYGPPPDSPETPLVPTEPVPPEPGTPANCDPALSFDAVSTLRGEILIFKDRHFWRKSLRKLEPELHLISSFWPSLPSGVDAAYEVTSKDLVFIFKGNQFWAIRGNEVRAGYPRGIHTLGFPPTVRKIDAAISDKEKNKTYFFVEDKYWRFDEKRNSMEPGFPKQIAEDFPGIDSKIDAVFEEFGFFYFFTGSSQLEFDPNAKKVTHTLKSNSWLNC
# Chain of angiotensin converting enzyme (ACE) (P12821 30-1306, species assumed): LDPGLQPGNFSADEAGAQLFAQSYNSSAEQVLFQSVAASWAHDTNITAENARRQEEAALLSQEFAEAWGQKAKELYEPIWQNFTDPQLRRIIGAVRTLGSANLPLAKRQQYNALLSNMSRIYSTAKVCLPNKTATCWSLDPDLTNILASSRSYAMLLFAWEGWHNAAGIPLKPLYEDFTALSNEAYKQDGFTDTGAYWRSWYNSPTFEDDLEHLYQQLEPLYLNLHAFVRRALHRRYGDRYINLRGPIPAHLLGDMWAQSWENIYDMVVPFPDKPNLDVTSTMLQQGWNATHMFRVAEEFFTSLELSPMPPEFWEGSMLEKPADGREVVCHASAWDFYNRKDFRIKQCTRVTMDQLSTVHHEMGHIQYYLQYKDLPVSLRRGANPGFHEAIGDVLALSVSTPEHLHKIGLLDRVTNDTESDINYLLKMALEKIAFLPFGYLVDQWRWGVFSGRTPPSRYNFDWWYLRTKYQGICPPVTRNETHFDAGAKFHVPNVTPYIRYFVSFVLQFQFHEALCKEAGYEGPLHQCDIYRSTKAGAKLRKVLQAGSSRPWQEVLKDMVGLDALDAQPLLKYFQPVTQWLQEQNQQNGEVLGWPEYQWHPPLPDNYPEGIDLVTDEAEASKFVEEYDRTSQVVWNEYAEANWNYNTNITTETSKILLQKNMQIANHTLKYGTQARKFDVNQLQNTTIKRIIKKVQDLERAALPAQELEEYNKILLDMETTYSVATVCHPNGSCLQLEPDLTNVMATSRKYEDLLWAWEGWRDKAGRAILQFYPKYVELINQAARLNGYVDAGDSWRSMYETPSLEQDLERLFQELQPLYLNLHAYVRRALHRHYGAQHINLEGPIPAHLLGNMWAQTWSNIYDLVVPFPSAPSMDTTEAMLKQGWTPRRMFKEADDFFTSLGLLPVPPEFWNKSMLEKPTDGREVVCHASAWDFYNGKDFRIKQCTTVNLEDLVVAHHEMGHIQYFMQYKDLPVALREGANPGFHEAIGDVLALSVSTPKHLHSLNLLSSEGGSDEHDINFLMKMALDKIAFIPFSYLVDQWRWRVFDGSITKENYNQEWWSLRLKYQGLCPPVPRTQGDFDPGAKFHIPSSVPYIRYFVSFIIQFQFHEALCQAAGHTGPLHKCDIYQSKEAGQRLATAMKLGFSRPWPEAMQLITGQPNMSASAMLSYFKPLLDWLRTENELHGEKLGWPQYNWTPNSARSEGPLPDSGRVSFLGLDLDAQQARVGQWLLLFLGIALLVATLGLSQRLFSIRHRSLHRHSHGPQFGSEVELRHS
# Chain of plasmin (P00747 581-810 limits assumed, species assumed): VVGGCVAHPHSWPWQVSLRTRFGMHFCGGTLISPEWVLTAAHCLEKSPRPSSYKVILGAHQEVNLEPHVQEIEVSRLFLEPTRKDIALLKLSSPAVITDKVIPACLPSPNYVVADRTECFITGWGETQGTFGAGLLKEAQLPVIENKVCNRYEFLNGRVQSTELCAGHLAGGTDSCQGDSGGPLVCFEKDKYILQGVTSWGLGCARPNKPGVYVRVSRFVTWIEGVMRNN
# Chain of plasmin (P00747 97-580 partner limits assumed, species assumed): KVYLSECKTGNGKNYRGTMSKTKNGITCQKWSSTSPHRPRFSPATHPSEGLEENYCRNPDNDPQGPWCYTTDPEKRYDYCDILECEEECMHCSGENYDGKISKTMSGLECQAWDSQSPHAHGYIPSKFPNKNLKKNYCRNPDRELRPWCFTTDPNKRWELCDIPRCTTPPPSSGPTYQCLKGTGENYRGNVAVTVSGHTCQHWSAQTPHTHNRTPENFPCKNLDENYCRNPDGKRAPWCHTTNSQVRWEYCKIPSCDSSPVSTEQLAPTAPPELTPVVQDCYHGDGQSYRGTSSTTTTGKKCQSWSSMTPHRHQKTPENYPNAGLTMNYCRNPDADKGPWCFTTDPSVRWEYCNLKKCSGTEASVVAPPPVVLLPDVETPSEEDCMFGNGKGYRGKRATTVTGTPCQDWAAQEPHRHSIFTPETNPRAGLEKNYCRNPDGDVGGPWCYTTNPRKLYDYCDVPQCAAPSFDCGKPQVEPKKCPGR
compound,measurement,setting,value
"CNC(=O)[C@H](Cc1ccccc1)NC(=O)[C@H](CC(C)C)[C@H](CSc1cccs1)C(=O)NO [BB-94, Batimastat]",upregulation of mouse uPA in the tumours,[1],~2 fold
CNC(=O)[C@H](Cc1c[nH]c2ccccc12)NC(=O)[C@@H](CC(=O)NO)CC(C)C [Galardin™],wounds healed after 38 days,[2]; Galardin 2.5 mg i.p. once daily,22%
same,healed wounds 38 days after wounding,[3],none
same,healed wounds after 80 days,[3],none
same,keratinocyte migration distance (mean value±standard deviation),[4],208±60 arbitrary units
same,keratinocyte migration distance (mean value±standard deviation),[5],268±80 arbitrary units
same,expression of gelatinase A and stromelysin-3 mRNA in granulation tissue fibroblasts,[6],upregulated
same,"expression of gelatinase B, collagenase-3 and stromelysin-1 mRNA in leading-edge keratinocytes",[6],dramatically upregulated
same,% pregnant,[7]; 2.5 mg i.p. daily day 3.5 to 18.5,25%
same,Pregnancies,"[7]; 2.5 mg i.p. daily day 3.5 to 18.5, 4 mice",1*
same,% pregnant,"[7]; 2.5 mg i.p. daily day 3.5 to 18.5, listed as G",25* %
same,Gland 4 Weight,[8]; [19],188 mg and 198 mg and 146 mg
same,Mean Weight (gland 4),[8]; [20],177 mg
same,% Control (gland weight),[8]; control = plg^+/+ untreated,162%
same,Gland 4 Weight,[9]; [19],262 mg and 342 mg and 251 mg
same,Mean Weight (gland 4),[9]; [20],285 mg
same,% Control (gland weight),[9]; control = plg^+/+ untreated,262%
same,Mean Weight ± SD (uterus),"[10]; 90 mg/kg i.p. daily, fifth day post-partum",221 ± 65.3 mg
same,Weight (uterus),"[10]; 90 mg/kg i.p. daily, fifth day post-partum, single animals, 90 mg/kg",288 mg and 285 mg and 135 mg and 206 mg and 192 mg
same,change in 5 day postpartum uterine weight versus control,"[10]; 90 mg/kg, p=0.158",did not produce a significant increase
same,change in 5 day postpartum uterine weight versus control,"[11]; Plg^−/− mice, 90 mg/kg, p=0.012",significant increase
same,Mean Weight ± SD (uterus),"[11]; plg^−/− mice, 90 mg/kg i.p. daily, fifth day post-partum",337 ± 70.9 mg
same,Weight (uterus),"[11]; plg^−/− mice, 90 mg/kg i.p. daily, fifth day post-partum, single animals, 90 mg/kg",311 mg and 408 mg and 236 mg and 328 mg and 401 mg
same,survival of the tumour-bearing mice,"[12]; 10 mg TA and 13,000 KIU AP per day i.p., 1.8 mg Galardin per day per mouse",considerable prolongation
same,long-term survival (mice per group of 17),[12]; treatment stopped day 50,no long-term survivors
same,Pregnancies,[13],3
same,production of offspring,[14],unaffected
same,Ki,[15],in the millimolar range
same,Ki,[16],in the millimolar range
same,Ki,[17],0.03 µM
aprotinin,time after which all wounds were healed,[2],24 days
same,half life,[18]; mouse plasma,approx. 3 h
same,plasma level,[18]; mouse,approx. 25 μg/ml
NC[C@H]1CC[C@H](C(=O)O)CC1 [tranexamic acid],time after which all wounds were healed,[2],17 days
